In the supplement of paper PMC10307832:

How the values were obtained:
Experiment in all cases: relative viability (nuclei count vs DMSO), 5 days (fraction); higher = more cells survive
[1] = compound: CCC1=CN=CN=C1N2CCN(CC2)CC3=NC4=C(N3)C=C(C=C4)C(F)(F)F + COc1cccc2cc(-c3nc([C@H]4CC[C@H](C(=O)O)CC4)n4ncnc(N)c34)[nH]c12 [OSI-027] (partner 0.5 µM)
In short: (§1)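 Dosing by pin tool came one day after lung cancer cell lines were seeded in 1536-well plates, using either one drug or a fixed anchor-drug dose plus five library-drug doses (not always all listed) in √10 steps. After 5 days, nuclei were counted on 4× images. Relative viability is treated-well nuclei count divided by vehicle-well nuclei count, and values are medians of duplicate plates.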

[2] = compound: CCn1c(-c2nonc2N)nc2cnc(Oc3cccc(NC(=O)c4ccc(OCCN5CCOCC5)cc4)c3)cc21 + NC(=O)Nc1cc(-c2cccc(F)c2)sc1C(=O)N[C@H]1CCCNC1 [AZD7762] (partner 0.2 µM)
In short: as §1

[3] = compound: N=C1NC(=O)/C(=C/c2ccc(O)cc2)S1 [Mirin] + COc1cccc2cc(-c3nc([C@H]4CC[C@H](C(=O)O)CC4)n4ncnc(N)c34)[nH]c12 [OSI-027] (partner 0.5 µM)
In short: as §1

[4] = compound: N=C1NC(=O)/C(=C/c2ccc(O)cc2)S1 [Mirin] + N=C(N)NC(=N)NCCc1ccccc1 [Phenformin] (partner 250 µM)
In short: as §1

| Cell Line | relative viability ([1]; first compound 0.04 µM) | relative viability ([1]; first compound 0.1265 µM) | relative viability ([1]; first compound 0.4 µM) | relative viability ([1]; first compound 1.265 µM) | relative viability ([1]; first compound 4 µM) | relative viability ([2]; first compound 0.1265 µM) | relative viability ([2]; first compound 0.4 µM) | relative viability ([2]; first compound 1.265 µM) | relative viability ([2]; first compound 4 µM) | relative viability ([3]; first compound 0.25 µM) | relative viability ([3]; first compound 0.7906 µM) | relative viability ([3]; first compound 2.5 µM) | relative viability ([3]; first compound 7.906 µM) | relative viability ([3]; first compound 25 µM) | relative viability ([4]; first compound 0.25 µM) | relative viability ([4]; first compound 0.7906 µM) | relative viability ([4]; first compound 2.5 µM) | relative viability ([4]; first compound 7.906 µM) | relative viability ([4]; first compound 25 µM) | relative viability ([2]; first compound 0.04 µM) |
| --- | --- | --- | --- | --- | --- | --- | --- | --- | --- | --- | --- | --- | --- | --- | --- | --- | --- | --- | --- | --- |
| NCI-H727 | 0.531 | 0.618 | 0.581 | 0.423 | 0.533 | 0.699 | 0.539 | 0.566 | 0.739 | 0.833 | 0.596 | 0.529 | 0.586 | 0.877 | 0.828 | 0.922 | 0.444 | 0.657 | 0.577 | – |
| NCI-H23 | 0.603 | 0.65 | 0.641 | 0.58 | 0.551 | 0.277 | 0.229 | 0.115 | 0.151 | 0.725 | – | 0.544 | 0.443 | 0.589 | 0.817 | – | 0.747 | 0.753 | 0.862 | 0.453 |
| NCI-H1395 | 0.572 | 0.669 | 0.615 | 0.641 | 0.671 | 0.36 | 0.359 | 0.352 | 0.333 | 0.616 | 0.618 | 0.705 | 0.61 | 0.564 | 0.41 | 0.421 | 0.435 | 0.463 | 0.412 | 0.356 |
| NCI-H596 | 0.723 | 0.683 | 0.743 | – | 0.915 | 0.926 | 0.941 | 0.762 | 0.9 | 0.826 | 0.747 | 0.842 | 0.587 | 0.746 | 0.709 | 0.713 | 0.704 | 0.787 | 0.736 | 1.23 |
| NCI-H460 | 0.752 | 0.59 | 0.645 | 0.538 | 0.595 | 0.465 | 0.148 | 0.0565 | 0.0732 | 0.612 | 0.672 | 0.748 | 0.55 | 0.389 | 0.551 | 0.485 | 0.5 | 0.522 | 0.623 | 0.712 |
